The source of these data is patent publication US10208064B2, “Inhibitors of the renal outer medullary potassium channel” (MERCK SHARP & DOHME CORP., priority 2014, dated 2019).

This experiment has as its target ROMK (Kir1.1) channel (Homo sapiens (Human), UniProt P48048). In words: Thallium Flux Assay. Type of experiment: cell-based. The protocol:
The following Thallium Flux Assay was performed on each of the final product compounds in the Examples.
A Thallium Flux Assay was performed on the compounds of the Examples. This assay has been described previously; see, e.g., PCT Published Application WO 2013/062900.

Molecules are shown by their SMILES.

ROMK (Kir1.1) channel, sequence (P48048 whole entry): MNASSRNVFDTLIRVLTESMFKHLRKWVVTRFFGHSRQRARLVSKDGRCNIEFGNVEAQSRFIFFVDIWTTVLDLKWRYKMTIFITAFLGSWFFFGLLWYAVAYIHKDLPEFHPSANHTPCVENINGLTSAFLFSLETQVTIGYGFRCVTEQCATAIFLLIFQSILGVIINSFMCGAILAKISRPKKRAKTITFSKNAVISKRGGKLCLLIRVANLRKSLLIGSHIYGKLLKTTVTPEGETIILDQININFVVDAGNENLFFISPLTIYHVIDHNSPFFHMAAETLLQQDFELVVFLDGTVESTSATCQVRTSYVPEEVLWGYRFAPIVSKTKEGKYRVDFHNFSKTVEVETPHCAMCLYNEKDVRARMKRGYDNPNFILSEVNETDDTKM

Turning to `CC1=C(N2CCC3(CCN(C(CO)c4ccc5c(ccc6nnnn65)c4)CC3)C2=O)COC1=O` (racemic) [Example 28, 8-(2-hydroxy-1-(tetrazolo[1,5-a]quinolin-7-yl)ethyl)-2-(4-methyl-5-oxo-2,5-dihydrofuran-3-yl)-2,8-diazaspiro[4.5]decan-1-one], the IC50 is 18 nM.

Molecule `CC1=C(N2CCC3(CCN(C[C@H](O)c4ccc5c(c4Cl)Cn4nnnc4-5)CC3)C2=O)COC1=O` [Example 1, (R)-8-(2-(6-chloro-5H-tetrazolo[5,1-a]isoindol-7-yl)-2-hydroxyethyl)-2-(4-methyl-5-oxo-2,5-dihydrofuran-3-yl)-2,8-diazaspiro[4.5]decan-1-one] had an IC50 of 31 nM.

Regarding `CC1=C(N2CCC3(CCN(C[C@@H](O)c4ccc5c(c4Cl)Cn4nnnc4-5)CC3)C2=O)COC1=O` [Example 2, (S)-8-(2-(6-chloro-5H-tetrazolo[5,1-a]isoindol-7-yl)-2-hydroxyethyl)-2-(4-methyl-5-oxo-2,5-dihydrofuran-3-yl)-2,8-diazaspiro[4.5]decan-1-one], the IC50 came to 9 nM.

Regarding `CC1=C(N2CC[C@@]3(CCN(C[C@H](O)c4ccc5c(c4)Cn4nnnc4-5)C[C@@H]3F)C2=O)COC1=O` [Example 3, (5S,6R)-6-fluoro-8-((R)-2-hydroxy-2-(5H-tetrazolo[5,1-a]isoindol-7-yl)ethyl)-2-(4-methyl-5-oxo-2,5-dihydrofuran-3-yl)-2,8-diazaspiro[4.5]decan-1-one], it took 35 nM to reach half-maximal inhibition (IC50).

Molecule `CC1=C(N2CC[C@]3(CCN(C[C@H](O)c4ccc5c(c4)Cn4nnnc4-5)C[C@H]3F)C2=O)COC1=O` [Example 4, (5R,6S)-6-fluoro-8-((R)-2-hydroxy-2-(5H-tetrazolo[5,1-a]isoindol-7-yl)ethyl)-2-(4-methyl-5-oxo-2,5-dihydrofuran-3-yl)-2,8-diazaspiro[4.5]decan-1-one] registered an IC50 of 43 nM.

Molecule `CC1=C(N2CC[C@@]3(CCN(C[C@@H](O)c4ccc5c(c4)Cn4nnnc4-5)C[C@@H]3F)C2=O)COC1=O` [Example 5, (5S,6R)-6-fluoro-8-((S)-2-hydroxy-2-(5H-tetrazolo[5,1-a]isoindol-7-yl)ethyl)-2-(4-methyl-5-oxo-2,5-dihydrofuran-3-yl)-2,8-diazaspiro[4.5]decan-1-one] registered an IC50 of 111 nM.

Consider `CC1=C(N2CC[C@]3(CCN(C[C@@H](O)c4ccc5c(c4)Cn4nnnc4-5)C[C@H]3F)C2=O)COC1=O` [Example 6, (5R,6S)-6-fluoro-8-((S)-2-hydroxy-2-(5H-tetrazolo[5,1-a]isoindol-7-yl)ethyl)-2-(4-methyl-5-oxo-2,5-dihydrofuran-3-yl)-2,8-diazaspiro[4.5]decan-1-one], for which the IC50 stood at 40 nM.

Molecule `CC1=C(N2CCC3(CCN(C[C@H](O)c4ccc5c(c4)CCc4nnnn4-5)CC3)C2=O)COC1=O` [Example 7A, (R)-8-(2-(4,5-dihydrotetrazolo[1,5-a]quinolin-7-yl)-2-hydroxyethyl)-2-(4-methyl-5-oxo-2,5-dihydrofuran-3-yl)-2,8-diazaspiro[4.5]decan-1-one] registered an IC50 of 34 nM.

Consider `CC1=C(N2CCC3(CCN(C[C@@H](O)c4ccc5c(c4)CCc4nnnn4-5)CC3)C2=O)COC1=O` [Example 7B, (S)-8-(2-(4,5-dihydrotetrazolo[1,5-a]quinolin-7-yl)-2-hydroxyethyl)-2-(4-methyl-5-oxo-2,5-dihydrofuran-3-yl)-2,8-diazaspiro[4.5]decan-1-one], for which 38 nM corresponded to half-maximal inhibition (IC50).

`CC1=C(N2CCC3(CCN(C[C@H](O)c4ccc5c(c4)Cn4nnnc4-5)CC3)C2=O)COC1=O` [Example 8, (R)-8-(2-hydroxy-2-(5H-tetrazolo[5,1-a]isoindol-7-yl)ethyl)-2-(4-methyl-5-oxo-2,5-dihydrofuran-3-yl)-2,8-diazaspiro[4.5]decan-1-one] yielded an IC50 of 13 nM.

`CC1=C(N2CCC3(CCN(C[C@@H](O)c4ccc5c(c4)Cn4nnnc4-5)CC3)C2=O)COC1=O` [Example 9, (S)-8-(2-hydroxy-2-(5H-tetrazolo[5,1-a]isoindol-7-yl)ethyl)-2-(4-methyl-5-oxo-2,5-dihydrofuran-3-yl)-2,8-diazaspiro[4.5]decan-1-one]: the IC50 came out at 19 nM.

As for `CC1=C(N2CCC3(CCN(C[C@H](O)c4ccc5c(c4C)CCc4nnnn4-5)CC3)C2=O)COC1=O` [Example 10, (R)-8-(2-hydroxy-2-(6-methyl-4,5-dihydrotetrazolo[1,5-a]quinolin-7-yl)ethyl)-2-(4-methyl-5-oxo-2,5-dihydrofuran-3-yl)-2,8-diazaspiro[4.5]decan-1-one], 46 nM corresponded to half-maximal inhibition (IC50).

Take `CC1=C(N2CCC3(CCN(C[C@@H](O)c4ccc5c(c4C)CCc4nnnn4-5)CC3)C2=O)COC1=O` [Example 11, (S)-8-(2-hydroxy-2-(6-methyl-4,5-dihydrotetrazolo[1,5-a]quinolin-7-yl)ethyl)-2-(4-methyl-5-oxo-2,5-dihydrofuran-3-yl)-2,8-diazaspiro[4.5]decan-1-one]: the IC50 was determined as 47 nM.

As to `C[C@@H]1CC2(CCN(C[C@H](O)c3ccc4c(c3)CCc3nnnn3-4)CC2)C(=O)N1C1=CC(=O)OC1` [Example 12, (R)-8-((R)-2-(4,5-dihydrotetrazolo[1,5-a]quinolin-7-yl)-2-hydroxyethyl)-3-methyl-2-(5-oxo-2,5-dihydrofuran-3-yl)-2,8-diazaspiro[4.5]decan-1-one], 188 nM corresponded to half-maximal inhibition (IC50).

`C[C@H]1CC2(CCN(C[C@H](O)c3ccc4c(c3)CCc3nnnn3-4)CC2)C(=O)N1C1=CC(=O)OC1` [Example 13, (S)-8-((R)-2-(4,5-dihydrotetrazolo[1,5-a]quinolin-7-yl)-2-hydroxyethyl)-3-methyl-2-(5-oxo-2,5-dihydrofuran-3-yl)-2,8-diazaspiro[4.5]decan-1-one] gave an IC50 of 23 nM.

The molecule `C[C@@H]1CC2(CCN(C[C@@H](O)c3ccc4c(c3)CCc3nnnn3-4)CC2)C(=O)N1C1=CC(=O)OC1` [Example 14, (R)-8-((S)-2-(4,5-dihydrotetrazolo[1,5-a]quinolin-7-yl)-2-hydroxyethyl)-3-methyl-2-(5-oxo-2,5-dihydrofuran-3-yl)-2,8-diazaspiro[4.5]decan-1-one] displayed a concentration for half-maximal inhibition (IC50) of 284 nM.

`C[C@H]1CC2(CCN(C[C@@H](O)c3ccc4c(c3)CCc3nnnn3-4)CC2)C(=O)N1C1=CC(=O)OC1` [Example 15, (S)-8-((S)-2-(4,5-dihydrotetrazolo[1,5-a]quinolin-7-yl)-2-hydroxyethyl)-3-methyl-2-(5-oxo-2,5-dihydrofuran-3-yl)-2,8-diazaspiro[4.5]decan-1-one] had an IC50 of 14 nM.

In the case of `C[C@@H]1CC2(CCN(C[C@H](O)c3ccc4c(ccc5nnnn54)c3)CC2)C(=O)N1C1=CC(=O)OC1` [Example 16, (R)-8-((R)-2-hydroxy-2-(tetrazolo[1,5-a]quinolin-7-yl)ethyl)-3-methyl-2-(5-oxo-2,5-dihydrofuran-3-yl)-2,8-diazaspiro[4.5]decan-1-one], half-maximal inhibition (IC50) required 32 nM.

The molecule `C[C@H]1CC2(CCN(C[C@H](O)c3ccc4c(ccc5nnnn54)c3)CC2)C(=O)N1C1=CC(=O)OC1` [Example 17, (S)-8-((R)-2-hydroxy-2-(tetrazolo[1,5-a]quinolin-7-yl)ethyl)-3-methyl-2-(5-oxo-2,5-dihydrofuran-3-yl)-2,8-diazaspiro[4.5]decan-1-one] displayed an IC50 of 20 nM.
